Data as given in ChEMBL document CHEMBL3137381, “MMV Box Onchocerca lienalis screening set”.

Assays:
Type in all cases: functional
Onchocerca lienalis [1] = assay: MMV: Percent motility assay at a compound concentration of 1.25e-5 M. Activity score legend: 3: Active, 2: Moderately active; 1: Inactive, 0: Toxic; settings: at 12.5 µM
Onchocerca lienalis [2] = assay: MMV: Percent motility assay at a compound concentration of 3.1e-6 M. Activity score legend: 3: Active, 2: Moderately active; 1: Inactive, 0: Toxic; settings: at 3.1 µM
Onchocerca lienalis [3] = assay: MMV: Percent motility assay at a compound concentration of 1.9e-7 M. Activity score legend: 3: Active, 2: Moderately active; 1: Inactive, 0: Toxic; settings: at 0.19 µM
Onchocerca lienalis [4] = assay: MMV: Percent motility assay at a compound concentration of 7.8e-7 M. Activity score legend: 3: Active, 2: Moderately active; 1: Inactive, 0: Toxic; settings: at 0.78 µM

Measured: Motility

O=C1c2ccccc2-c2nnc(-c3ccc(Br)cc3)cc21
100%: all assays above

CCOC(=O)C1=C(C)N=c2sc(=Cc3cc(Cl)ccc3O)c(=O)n2C1c1ccc(OC)cc1 (centres undefined)
100%: all assays above

Cc1nc2ccccc2c(O)c1CC=C(Cl)Cl
100%: all assays above

FC(F)(F)c1cccc(Nc2nc3ccccc3nc2Nc2cccc(C(F)(F)F)c2)c1
100%: all assays above

CC(=O)c1ccc(NC(=O)CSc2nc(-c3ccccc3Cl)ns2)cc1
100%: all assays above

COc1ccc(C(=O)NC(c2ccc(Cl)cc2Cl)c2cc(Cl)c3cccnc3c2O)cc1 (centres undefined)
100%: all assays above

O=C(NCCCN1CCC(N2CCCCC2)CC1)C1=Cc2cc(Br)ccc2OC1
100%: all assays above

Cc1ccnc(NC(c2cccc(OCc3ccccc3)c2)c2ccc3cccnc3c2O)c1 (centres undefined)
100%: all assays above

Cc1ccc(OCCCCCCNCCO)c(C)c1
100%: all assays above

CC(C)CCNCC(O)Cn1c2ccccc2c2ccccc21.Cl (centres undefined)
100%: all assays above

CCOC(=O)c1cnc2ccc(Cl)cc2c1NCCCN(C)C
100%: all assays above

O=C1c2ccccc2C2=Nc3ccccc3SC(c3cccc(F)c3)C12 (centres undefined)
100%: all assays above

Cc1ccccc1OCCSc1nc2ccc(NC(=O)c3ccccc3)cc2s1
100%: all assays above

CC(C)(C)c1ccc(C(=O)Nc2c3c(nn2-c2cccc(Cl)c2)CSC3)cc1
100%: all assays above

CCCCCCn1c(=N)n(CC(O)COc2cccc(C)c2)c2ccccc21.Cl (centres undefined)
100%: all assays above

CCOC(=O)C1(Cc2ccccc2)CCN(Cc2cccc(OC)c2O)CC1
100%: all assays above

Oc1ccc(C(=C(Cl)Cl)c2ccc(O)cc2)cc1
100%: all assays above

CC(C)(C)c1ccc2c(c1)CN(Cc1ccc(Cl)cc1)CO2
100%: all assays above

CCCCC(O)(c1ccc(Cl)cc1)C(CN1CCOCC1)c1ccc(Cl)cc1.Cl (centres undefined)
100%: all assays above

COc1ccc(OC)c(C2C3=C(CC(C)(C)CC3=O)N(c3ccc(Cl)c(Cl)c3)C3=C2C(=O)CC(C)(C)C3)c1
100%: all assays above

Cc1cc(=O)oc2c1ccc1oc(C(=O)c3ccccc3)c(C)c12
100%: all assays above

COc1ccc(CN2CCN(Cc3ccccc3)CC2)c(O)c1
100%: all assays above

COc1ccc2c(c1OC)C(=O)N1c3ccccc3N=C(c3ccc(C)cc3)CC21 (centres undefined)
100%: all assays above

CCCCCCc1cc(O)c2c3c(c(=O)oc2c1)CCC(C)C3 (centres undefined)
100%: all assays above

CC1=C(CC(=O)c2cccc([N+](=O)[O-])c2)C(=O)c2ccccc2C1=O
100%: all assays above

OC1CCCCC1C1(NC(=S)Nc2ccccc2)CCCCC1 (centres undefined)
100%: all assays above

OC1=C2C(=Nc3ccccc3SC2c2ccc(Br)cc2)c2ccccc21 (centres undefined)
100%: all assays above

COc1ccc(C)c2sc(N(Cc3cccnc3)C(=O)c3ccc(C#N)cc3)nc12
100%: all assays above

CCCCCn1c(=N)n(CC(O)COc2cccc(C)c2)c2ccccc21.Cl (centres undefined)
100%: all assays above

CCN1CCN(c2c(C(=O)c3ccccc3)cnc3cc(OC)c(OC)cc23)CC1
100%: all assays above

Cc1ccc(S(=O)(=O)c2c(COC(=O)c3cccc(C)c3)c(-c3ccccc3)nn2C)cc1
100%: all assays above
